How the values were obtained:
[1] = system: time to first ejaculation of male rats; experiment: Time until first ejaculation in male rats, 5-HT1A-receptor antagonist in conjunction with serotonergic agent (Example 3); assay type: in vivo; details: antagonist in conjunction with Citalopram, Fluoxetine, Ifoxetine, Paroxetine or Zimelidine shortly before sexual activity, relative to the rat's own average without treatment
Description: In a study with male rats, 10 different 5-HT1A-receptor antagonists are administered in conjunction with five different serotonergic agents shortly before sexual activity.

5-HT1A receptor = details: cited from earlier work
male rat sexual behavior = experiment: Male rat sexual behavior model (sexually trained males, 30-min access to receptive females); assay type: in vivo; details: for behavioral effects on sexual behavior, antagonist alone: separate experiments, not shown
From the text: A model of sexual behavior in male rats was developed that is predictive of SSRI-effects on human male sexual behavior (Bijlsma et al. 2014; Olivier et al. 2006; 2017). In this male rat sexual behavior model, SSRIs inhibit sexual behavior, but only upon chronic administration thereby mimicking and modeling the SSRI effects in human males.
Male rats were sexually trained till they obtained a stable sexual performance (on average 2 ejaculations per 30-min, the standard testing duration). Animals were injected intraperitoneally 30-min before testing after which males had 30 min access to the females that were behaviorally sexually receptive. A trained researcher scored the sexual behavior of the males according to published and accepted methods (Chan et al. 2010).

5-HT1A-receptor = target: T1, 5-HT1A-receptor (Homo sapiens, UniProt P08908); details: healthy human volunteers, cited from earlier work
T1 construct: host or cells: brain of healthy human volunteers (in vivo PET)
T1 sequence (P08908 1-422): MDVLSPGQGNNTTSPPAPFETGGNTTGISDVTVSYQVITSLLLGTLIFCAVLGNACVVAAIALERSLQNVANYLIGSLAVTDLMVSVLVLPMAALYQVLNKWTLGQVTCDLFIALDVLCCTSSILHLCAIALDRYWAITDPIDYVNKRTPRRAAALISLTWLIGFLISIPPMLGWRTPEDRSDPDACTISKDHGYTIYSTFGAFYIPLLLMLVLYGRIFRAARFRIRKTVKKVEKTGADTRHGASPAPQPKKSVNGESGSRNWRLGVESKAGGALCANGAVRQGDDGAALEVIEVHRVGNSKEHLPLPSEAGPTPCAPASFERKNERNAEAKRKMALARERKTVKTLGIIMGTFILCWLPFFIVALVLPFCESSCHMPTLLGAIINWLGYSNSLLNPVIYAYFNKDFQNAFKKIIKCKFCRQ

C=CCc1ccccc1OCC(O)CNC(C)C (centres unmarked) [Alprenolol]
Potential average increase in time to first ejaculation (%) [1]: 75%

O=C1c2ccccc2S(=O)(=O)N1CCCCN1CCN(c2cc(Cl)cc3c2OCCO3)CC1 [DU125530, 2-[4-[4-(7-chloro-2,3-dihydro-1,4-benzodi-oxin-5-yl)-1-piperazinyl]butyl]-1,2-benzisothiazol-3(2H)-one-1,1-dioxide]
Potential average increase in time to first ejaculation (%) [1]: 254%
5-HT1A receptor antagonistic activities in vitro and in vivo (5-HT1A receptor; Mos et al. 1997): selective 5-HT1A receptor antagonistic activities
biological activity given on itself (5-HT1A receptor; given on itself, Joordens et al. 1997): without biological activity
5-HT1A receptor antagonistic activity in several animal models (5-HT1A receptor; several animal models): nice and reliable 5-HT1A receptor antagonistic activity
behavioral effects on sexual behavior, antagonist alone (male rat sexual behavior; DU125530 alone at doses up to 20 mg/kg): no behavioral effects on sexual behavior
effect on male rat sexual behavior (male rat sexual behavior; acute DU125530 20 mg/kg in combination with acute paroxetine 5 mg/kg, intraperitoneally 30 min before testing): strongly inhibited male rat sexual behavior
effects when administered alone (male rat sexual behavior; administered alone): no effects
pharmacological activity when combined with paroxetine (male rat sexual behavior; combined with paroxetine): pharmacologically active
safety (male rat sexual behavior; rat, in vivo): safe
5-HT1A-receptor occupancy (5-HT1A-receptor; 10 to 40-mg daily dose range, 2 h post the last dose, dose-dependent): 0-72%
side effects (5-HT1A-receptor; 10 to 40-mg daily dose range): minor side effects
tolerability (5-HT1A-receptor; 10 to 40-mg daily dose range): well tolerated
correlation of occupancy with plasma levels (5-HT1A-receptor): correlated highly

c1ccc(C(c2ccccc2)N2CCN(CCCC3(c4ccccc4)OCCO3)CC2)cc1 [Dotarizine]
Potential average increase in time to first ejaculation (%) [1]: 67%

CSc1ccc2c(c1)C(N1CCN(C)CC1)Cc1ccccc1S2 (centres unmarked) [Methiothepin]
Potential average increase in time to first ejaculation (%) [1]: 97%

OC(CNCC(O)C1CCc2cc(F)ccc2O1)C1CCc2cc(F)ccc2O1 (centres unmarked) [Nebiovolol]
Potential average increase in time to first ejaculation (%) [1]: 95%

CC(C)NCC(O)COc1cccc2[nH]ccc12 (centres unmarked) [Pindolol]
Potential average increase in time to first ejaculation (%) [1]: 46%

CC(C)NCC(O)COc1cccc2ccccc12 (centres unmarked) [Propranolol]
Potential average increase in time to first ejaculation (%) [1]: 87%

Cc1nc2n(c(=O)c1CCN1CCC(c3noc4cc(F)ccc34)CC1)CCCC2 [Risperidone]
Potential average increase in time to first ejaculation (%) [1]: 102%

O=C(CCCN1CCC2(CC1)C(=O)NCN2c1ccccc1)c1ccc(F)cc1 [Spiperone]
Potential average increase in time to first ejaculation (%) [1]: 80%

COc1ccccc1N1CCN(CCN(C(=O)C2CCCCC2)c2ccccn2)CC1 [WAY100,635, reference compound]
effect on male rat sexual behavior (male rat sexual behavior; WAY100,635 (0.3 mg/kg) in combination with paroxetine (5 mg/kg), own data, compared with DU125530 + paroxetine): comparable inhibition
behavioral effects on sexual behavior, antagonist alone (male rat sexual behavior; WAY100,635 alone at doses up to 1 mg/kg, IP): no behavioral effects on sexual behavior
